Test results reported in ChEMBL document CHEMBL3399917, “Design, synthesis and antiproliferative activity evaluation of m-(4-morpholinyl-1,3,5-triazin-2-yl)benzamides in vitro” (Bioorg Med Chem Lett, 2015).
Activity calls are given as the source filed them. The calls are words filed in the database; no cut-off is given here.

Tests used:
MCF7 [1] = test: Antiproliferative activity against human MCF7 cells assessed as inhibitory ratio at 10 uM after 72 hrs by MTT assay; type: functional; conditions: MCF7, 72 h
[2] = Antiproliferative activity against human HCT116 cells assessed as inhibitory ratio at 10 uM after 72 hrs by MTT assay; type: functional; conditions: HCT-116, 72 h
MCF7 [3] = test: Antiproliferative activity against human MCF7 cells after 72 hrs by MTT assay; type: functional, cell-based; conditions: MCF7, 72 h
[4] = Antiproliferative activity against human U87MG cells after 72 hrs by MTT assay; type: functional, cell-based, U-87MG ATCC; conditions: U-87 MG
A549 = test: Antiproliferative activity against human A549 cells after 72 hrs by MTT assay; type: functional, cell-based; conditions: A549, 72 h
HeLa = test: Antiproliferative activity against human HeLa cells after 72 hrs by MTT assay; type: functional, cell-based
[5] = Antiproliferative activity against human HCT116 cells after 72 hrs by MTT assay; type: functional, cell-based; conditions: HCT-116, 72 h
HCT-116 [6] = test: Inhibition of PI3K/Akt in human HCT116 cells assessed as Akt phosphorylation at 10 uM after 1 hr by Western blotting analysis; type: cell-based
HCT-116 [7] = test: Induction of apoptosis in human HCT116 cells assessed as cell shrinking and vacuolization, chromatin condensation and nuclear fragmentation after 24 hrs by Hoechst staining based phase contrast microscopy; type: functional

SMILES | inhibition at 10 µM (MCF7 [1]) [%] | inhibition at 10 µM [2] [%] | IC50 (MCF7 [3]) [nM] | IC50 [4] [nM] | IC50 (A549) [nM] | IC50 (HeLa) [nM] | IC50 [5] [nM] | inhibition (HCT-116 [6]) | Activity (HCT-116 [7])
CN1CCN(c2nc(-c3cc(C(N)=O)cc(C(F)(F)F)c3)nc(N3CCOCC3)n2)CC1 | 40.2 | 36.2 |  |  |  |  |  |  | 
COc1ccc(-c2nc(N3CCOCC3)nc(N3CCOCC3)n2)cc1C(N)=O | 36.2 | 40.4 |  |  |  |  |  |  | 
NC(=O)c1cc(-c2nc(N3CCOCC3)nc(N3CCOCC3)n2)ccc1O | 32.7 | 31.7 |  |  |  |  |  |  | 
NC(=O)c1cc(-c2nc(N3CCOCC3)nc(N3CCOCC3)n2)ccc1OCc1ccccc1 | 31.2 | 29.9 |  |  |  |  |  |  | 
NC(=O)c1cc(-c2nc(N3CCOCC3)nc(N3CCOCC3)n2)cc(C(F)(F)F)c1 | 59.3 | 71.4 | 4970 | 11200 | 8230 | 8070 | 2430 |  | 
NC(=O)c1cc(-c2nc(NCC(=O)N3CCOCC3)nc(N3CCOCC3)n2)cc(C(F)(F)F)c1 | 30.3 | 29.2 |  |  |  |  |  |  | 
NC(=O)c1cc(-c2nc(N3CCOCC3)nc(N3CCOCC3)n2)ccc1OCc1ccc(F)cc1 | 54.9 | 66.9 | 5230 | 3980 | 11300 | > 20000 | 2870 |  | 
CS(=O)(=O)NC1CCN(c2nc(-c3cc(C(N)=O)cc(C(F)(F)F)c3)nc(N3CCOCC3)n2)CC1 | 49.3 | 19 |  |  |  |  |  |  | 
CN(CCCC(=O)N1CCN(S(C)(=O)=O)CC1)c1nc(-c2cc(C(N)=O)cc(C(F)(F)F)c2)nc(N2CCOCC2)n1 | 37.7 | 40.8 |  |  |  |  |  |  | 
O=C(O)c1cc(-c2nc(N3CCOCC3)nc(N3CCOCC3)n2)cc(C(F)(F)F)c1 | 34.4 | 44.9 |  |  |  |  |  |  | 
NC(=O)c1cc(-c2nc(N3CCOCC3)nc(N3CCOCC3)n2)ccc1Cl | 34.4 | 35.6 |  |  |  |  |  |  | 
NC(=O)c1cc(-c2nc(N3CCOCC3)nc(N3CCOCC3)n2)ccc1OCc1cccc(F)c1 | 26.2 | 35.9 |  |  |  |  |  |  | 
Nc1cc(C(F)(F)F)c(-c2cc(N3CCOCC3)nc(N3CCOCC3)n2)cn1 [BUPARLISIB] | 84 | 89.5 | 1000 | 1640 | 2070 | 4340 | 480 | Active | 
CS(=O)(=O)N1CCN(C(=O)CNc2nc(-c3cc(C(N)=O)cc(C(F)(F)F)c3)nc(N3CCOCC3)n2)CC1 | 19.3 | 29.8 |  |  |  |  |  |  | 
CN(CCCC(=O)N1CCOCC1)c1nc(-c2cc(C(N)=O)cc(C(F)(F)F)c2)nc(N2CCOCC2)n1 | 38.5 | 44.8 |  |  |  |  |  |  | 
NC(=O)c1cc(O)cc(-c2nc(N3CCOCC3)nc(N3CCOCC3)n2)c1 | 65.8 | 77.9 | 2170 | 3210 | 3720 | 8170 | 1190 |  | 
CN(c1nc(-c2cc(C(N)=O)cc(C(F)(F)F)c2)nc(N2CCOCC2)n1)C1CCN(S(C)(=O)=O)CC1 | 61.7 | 72 | 2130 | 4630 | 2360 | 7120 | 1940 |  | 
NC(=O)c1cccc(-c2nc(N3CCOCC3)nc(N3CCOCC3)n2)c1 | 38 | 51.1 |  |  |  |  |  |  | 
NC(=O)c1cc(OC(F)(F)F)cc(-c2nc(N3CCOCC3)nc(N3CCOCC3)n2)c1 | 70.7 | 89.3 | 1250 | 1530 | 2370 | 4830 | 900 | Active | Dose-dependent effect
COc1cc(C(N)=O)cc(-c2nc(N3CCOCC3)nc(N3CCOCC3)n2)c1 | 42.2 | 41.2 |  |  |  |  |  |  | 
CS(=O)(=O)N1CCC(Nc2nc(-c3cc(C(N)=O)cc(C(F)(F)F)c3)nc(N3CCOCC3)n2)CC1 | 30.9 | 42.9 |  |  |  |  |  |  | 
CS(=O)(=O)N1CCN(c2nc(-c3cc(C(N)=O)cc(C(F)(F)F)c3)nc(N3CCOCC3)n2)CC1 | 47.4 | 19.4 |  |  |  |  |  |  | 
COC(=O)c1cc(-c2nc(N3CCOCC3)nc(N3CCOCC3)n2)cc(C(F)(F)F)c1 | 37.2 | 40 |  |  |  |  |  |  | 
NC(=O)c1cc(OCc2ccccc2)cc(-c2nc(N3CCOCC3)nc(N3CCOCC3)n2)c1 | 32.5 | 31.6 |  |  |  |  |  |  | 
